Measurements: patent publication US20150258059A1, “ANTIMICROBIAL AND RADIOPROTECTIVE COMPOUNDS” (BioDiem, Ltd, priority 2001, published 2015)
Values after ≈ are worked out from the molar mass of the structure shown.

Test system: C. krusei RMIT 177
Test: M38-P microdilution MIC/MFC
Type: cell-based
Settings: 35° C.

C/C(=C\c1ccc2c(c1)OCO2)[N+](=O)[O-] [Compound (1)]
MIC (Pichia kudriavzevii, RMIT177, Table 16, 24 h, read-out: MIC): 4 µg/mL (≈ 19.3 µM) | MMC (Table 16, 24 h): 4 µg/mL
